{"source": "patent US12194068B2", "about": "“Dietary supplement composition for treating and managing acne” (CODEX LABS CORPORATION, priority 2023, dated 2025)", "origin": "cited, not measured here", "test_system": "C. acnes", "details": "compared with benzoyl peroxide and erythromycin"}
{"compound": "Oc1ccc(C=Cc2cc(O)cc(O)c2)cc1", "note": "[resveratrol]", "values": [{"measurement": "inhibition of C. acnes proliferation", "value": "on par with benzoyl peroxide and erythromycin"}]}
